# Measured values from article PMC11879280, “Antimicrobial activity of peptoids against Metallo-β-lactamase-producing Klebsiella pneumoniae, Acinetobacter baumannii, Pseudomonas aeruginosa, and other WHO priority pathogens, including Candida auris” (Journal of Applied Microbiology, 2025).
# Read-outs that look alike come from different tables or passages of the source. Square brackets hold non-standard residues; d marks the D form. Peptide text beside a SMILES is read from it. Nspe = C[C@H](NCC(=O)O)c1ccccc1; NDecylGly = CCCCCCCCCCNCC(=O)O; Nlys = NCCCCNCC(=O)O
# Assays:
# C. auris CBS12373 = assay: Broth microdilution MIC; type: cell-based, Candida auris
# [1] = system: ESKAPEE pathogens (all bacteria); assay: Geometric mean MIC, therapeutic index and selectivity ratio, all bacteria; type: cell-based; details: across the 23 ESKAPEE strains
# Protocol: (§1) Briefly, bacteria were suspended in cation-adjusted Mueller–Hinton broth (CAMHB; Oxoid, UK) for antibiotics, or MHB (Oxoid, UK) for peptidomimetics to obtain 5 × 10^5 colony forming unit (CFU) ml^−1. […] Positive controls contained only microbes, and blanks contained only media. Microbial suspensions (100 µl) were added to wells, plates wrapped, and incubated at 37°C, 120 rpm for 16–20 h. After incubation, suspensions were removed, log10 diluted, and plated on Trypticase Soya Agar with phosphatidylcholine and Tween 80 to determine minimum bactericidal or fungicidal concentration (MBC or MFC). […] Geometric mean MIC of the peptoids were calculated to evaluate the broad overview of antimicrobial activity across the pathogens.
# (§2) The therapeutic indices (TIs) of the compounds were calculated with the use of following formula: […]
# Enterobacteriaceae = assay: Geometric mean MIC, therapeutic index and selectivity ratio, Enterobacteriaceae; type: cell-based; details: Enterobacteriaceae (E. coli, K. pneumoniae, and E. aerogenes)
# Protocol: as §1, §2
# MBL-producing bacteria = assay: Geometric mean MIC, therapeutic index and selectivity ratio, MBL-producing bacteria; type: cell-based
# Protocol: as §1
# The test was performed as per the manufacturer’s instructions. Briefly, the strips were applied to a lawn culture of bacteria maintained at 1.5 × 10^8 CFU ml^−1 on Mueller–Hinton agar (Oxoid, UK) and incubated for 20 h at 37°C.
# as §2
# C. auris strains = system: C. auris strains
# Protocol: as §1, §2
# [2] = system: horse red blood cells (RBCs); assay: Haemolysis assay; type: cell-based
# Protocol: The haemolytic activity of the peptidomimetics was performed to determine mammalian cell safety. This assay used horse red blood cells (RBCs) (Sigma–Aldrich, USA) as described previously (Willcox et al. [2008], Chongsiriwatana et al. [2017], Yasir et al. [2019b]). RBCs were washed three times with PBS at 470 g for 5 min. Peptoids (0.5–250 μg ml^−1) were prepared in PBS and added to washed RBCs, then incubated at 37°C for 4 h. After incubation, cells were centrifuged at 1057 g for 10 min, and the supernatant’s OD at 540 nm was measured for lysis. PBS-only RBCs served as the negative control (no haemolysis), and Milli-Q water-treated RBCs as the positive control (100% lysis). Percent haemolysis was calculated as: (ODT − ODNC)/(ODPC − ODNC) × 100, where ODT, ODNC, and ODPC are the absorbances of the test, negative, and positive controls, respectively. This experiment was performed in triplicate.
# A. baumannii 006 = system: A. baumannii 006
# Procedure, shortened: (§3)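 Suspensions of 5 × 10^5 CFU ml^−1 were incubated with compounds for 16–20 h at 37°C and 120 rpm, the medium being MHB for peptidomimetics and cation-adjusted MHB for antibiotics. Wells were afterwards log10 diluted and plated to obtain MBC.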
# A. baumannii 008 = system: A. baumannii 008
# Procedure, shortened: as §3
# A. baumannii ATCC 19 606 = system: A. baumannii ATCC 19 606
# Procedure, shortened: as §3
# E. coli 0010 = system: E. coli 0010
# Procedure, shortened: as §3
# E. coli 005 = system: E. coli 005
# Procedure, shortened: as §3
# En. cloacae 001 = system: En. cloacae 001
# Procedure, shortened: as §3
# En. cloacae 005 = system: En. cloacae 005
# Procedure, shortened: as §3
# K. pneumoniae JIE2709 = system: K. pneumoniae JIE2709
# Procedure, shortened: as §3
# K. pneumoniae JIE2713 = system: K. pneumoniae JIE2713
# Procedure, shortened: as §3
# K. pneumoniae JIE4212 = system: K. pneumoniae JIE4212
# Procedure, shortened: as §3
# P. aeruginosa 216 = system: P. aeruginosa 216
# Procedure, shortened: as §3
# P. aeruginosa AR-1270 = system: P. aeruginosa AR-1270
# Procedure, shortened: as §3
# S. aureus 105 = system: S. aureus 105
# Procedure, shortened: as §3
# S. aureus 38 = system: S. aureus 38
# Procedure, shortened: as §3
compound,measurement,setting,value
CCCCCCCCCCNCC(=O)N(CCCCN)CC(=O)N(CC(=O)N(CC(=O)N(CCCCN)CC(=O)N(CC(=O)N(CC(N)=O)[C@@H](C)c1ccccc1)[C@@H](C)c1ccccc1)[C@@H](C)c1ccccc1)[C@@H](C)c1ccccc1 [TM8] (H-[NDecylGly][Nlys][Nspe][Nspe][Nlys][Nspe][Nspe]-NH2),MIC against C. auris,"C. auris CBS12373; CBS 12 373, RPMI 1640 with MOPS, 5 × 10^3 CFU ml^−1, ≥90% reduction (≥50% for fluconazole)",3.9 µg/mL
same,MIC90,C. auris CBS12373; CBS12373,15.6 µg/mL
same,MIC against C. auris,C. auris CBS12373; CBS12373,3.5 µM
same,"Geometric mean MIC, all bacteria",[1],7.3 µg/mL
same,"Geometric mean MIC, all bacteria",[1]; value in brackets,6.6 µM
same,Geometric mean MICE,Enterobacteriaceae,11.0 µg/mL
same,Geometric mean MICMBL,MBL-producing bacteria,7.8 µg/mL
same,MIC against both C. auris strains,C. auris strains; strains,< 10 µg/mL
same,Geometric mean MICCA,C. auris strains; two C. auris strains,5.5 µg/mL
same,HD10 (10% haemolytic dose),[2],7.2 µmol/L
same,HD50 (50% haemolytic dose),[2],24.4 µmol/L
same,HD10 (10% haemolytic dose),"[2]; red cells of horse, 4 h",8 µg/mL
same,HD50 (50% haemolytic dose),"[2]; red cells of horse, 4 h",27.2 µg/mL
same,MIC of peptidomimetics,A. baumannii 006; 006,3.5 µM
same,MIC of peptidomimetics,"A. baumannii 006; A. baumannii 006, MHB (melimine/Mel4 with 0.2% BSA, 0.01% acetic acid), mean MIC",3.9 µg/mL
same,MIC of peptidomimetics,A. baumannii 008; 008,7.0 µM
same,MIC of peptidomimetics,"A. baumannii 008; A. baumannii 008, MHB (melimine/Mel4 with 0.2% BSA, 0.01% acetic acid), mean MIC",7.8 µg/mL
same,MIC of peptidomimetics,"A. baumannii ATCC 19 606; A. baumannii ATCC 19 606, MHB (melimine/Mel4 with 0.2% BSA, 0.01% acetic acid), mean MIC",3.9 µg/mL
same,MIC of peptidomimetics,A. baumannii ATCC 19 606; ATCC 19,3.5 µM
same,MIC of peptidomimetics,E. coli 0010; 0010,14.0 µM
same,MIC of peptidomimetics,"E. coli 0010; E. coli 0010, MHB (melimine/Mel4 with 0.2% BSA, 0.01% acetic acid), mean MIC",15.6 µg/mL
same,MIC of peptidomimetics,E. coli 005; 005,7.0 µM
same,MIC of peptidomimetics,"E. coli 005; E. coli 005, MHB (melimine/Mel4 with 0.2% BSA, 0.01% acetic acid), mean MIC",7.8 µg/mL
same,MIC of peptidomimetics,En. cloacae 001,7.0 µM
same,MIC of peptidomimetics,"En. cloacae 001; En. cloacae 001, MHB (melimine/Mel4 with 0.2% BSA, 0.01% acetic acid), mean MIC",7.8 µg/mL
same,MIC of peptidomimetics,En. cloacae 005,14.0 µM
same,MIC of peptidomimetics,"En. cloacae 005; En. cloacae 005, MHB (melimine/Mel4 with 0.2% BSA, 0.01% acetic acid), mean MIC",15.6 µg/mL
same,MIC of peptidomimetics,K. pneumoniae JIE2709; JIE2709,14.0 µM
same,MIC of peptidomimetics,"K. pneumoniae JIE2709; K. pneumoniae JIE2709, MHB (melimine/Mel4 with 0.2% BSA, 0.01% acetic acid), mean MIC",15.6 µg/mL
same,MIC of peptidomimetics,K. pneumoniae JIE2713; JIE2713,14.0 µM
same,MIC of peptidomimetics,"K. pneumoniae JIE2713; K. pneumoniae JIE2713, MHB (melimine/Mel4 with 0.2% BSA, 0.01% acetic acid), mean MIC",15.6 µg/mL
same,MIC of peptidomimetics,K. pneumoniae JIE4212; JIE4212,7.0 µM
same,MIC of peptidomimetics,"K. pneumoniae JIE4212; K. pneumoniae JIE4212, MHB (melimine/Mel4 with 0.2% BSA, 0.01% acetic acid), mean MIC",7.8 µg/mL
same,MIC of peptidomimetics,P. aeruginosa 216; 216,7.0 µM
same,MIC of peptidomimetics,"P. aeruginosa 216; P. aeruginosa 216, MHB (melimine/Mel4 with 0.2% BSA, 0.01% acetic acid), mean MIC",7.8 µg/mL
same,MIC of peptidomimetics,P. aeruginosa AR-1270; AR-1270,14.0 µM
same,MIC of peptidomimetics,"P. aeruginosa AR-1270; P. aeruginosa AR-1270, MHB (melimine/Mel4 with 0.2% BSA, 0.01% acetic acid), mean MIC",15.6 µg/mL
same,MIC of peptidomimetics,S. aureus 105; 105,3.5 µM
same,MIC of peptidomimetics,"S. aureus 105; S. aureus 105, MHB (melimine/Mel4 with 0.2% BSA, 0.01% acetic acid), mean MIC",3.9 µg/mL
same,MIC of peptidomimetics,S. aureus 38; 38,3.5 µM
same,MIC of peptidomimetics,"S. aureus 38; S. aureus 38, MHB (melimine/Mel4 with 0.2% BSA, 0.01% acetic acid), mean MIC",3.9 µg/mL
